# Patent US5084455A, “Novel indole carboxamides” (Roussel Uclaf, priority 1985, dated 1992)
# Structures can show the parent of a compound that is named as a salt. Where two headings read alike, the source gives them in different places.
# Columns and labels:
# [1] = system: disturbances of the cardiac rhythm; experiment: Anti-arrhythmic action in the rat (aconitine perfusion); format: in vivo, male rats
# Experimental: Male rats weighing 300-350 g were anesthetized intra-peritoneally with 1.20 g/kg of urethane, then tracheotomized and submitted to artificial respiration (40-50 breaths of 3 ml/minute). Needles were implanted subcutaneously so as to record the electro-cardiogram of the rats on the DII derivation signal. The products under test were administered intravenously or orally.
# Five minutes after the administration of the product intravenously or 1 hour after administration orally, the jugular vein of the rats was perfused with 10 μg/minute from 0.2 ml of a solution of aconitine, and the time of appearance of disturbances of the cardiac rhythm was noted, (10 μg of aconitine corresponding to a perfusion of 0.2 ml of solution). The results are expressed as a percentage of the extension of the time of appearance of the disturbances of the cardiac rhythm as compared with controls, and as a function of the dose of the product under test.
# mice = experiment: Study of the acute toxicity; format: in vivo; settings: oral
# Experimental: The lethal doses LD50 of the different compounds tested were evaluated after administration orally to mice. The maximum dose not causing any mortality in 8 days was called the LD0 and the following results were obtained.
# Rat caudal arteries = experiment: Test of calcium-antagonistic activity in vitro (K+ depolarized caudal arteries); format: cell-based; settings: 100 mM K+, 37° C., read-out: IC50, inhibition of the contraction due to K+ ions
# Experimental: Calcium chloride was added in a volume of 250 μl to obtain a series of increasing concentrations of Ca^2+ ions ranging from 0.1 to 3.0 mM. The contractions of the arteries were recorded and a control series were thus established. The operation was repeated with the series of CA^2+ ions every 15 minutes and the preparation was washed four times after each series. When a stable response was obtained, the operation with the series of CA^2+ ions was performed in the presence of different concentrations of the test product, until a stable response was obtained.
# The contractions of the arteries depend on the entry of Ca^2+ ions into the cells of the smooth muscles, and were caused by the depolarization of the smooth muscle by the K^+ ions and by the action of the noradrenaline released at presynaptic level. By starting the operation again with arteries denervated by the action of 6-OH-dopamine, the specific action due to noradrenaline was eliminated.
# [2] = read-out: Percentage of prolongation in the time
# [3] = iv, read-out: Percentage extension of the time of appearance of disturbances of the cardiac rhythm
# [4] = iv, read-out: Percentage of prolongation in the time
# [5] = po, read-out: Percentage extension of the time of appearance of disturbances of the cardiac rhythm
structure (smiles),measurement,setting,value
"CCCNCCCOc1ccccc1C(=O)Nc1cccc2[nH]ccc12 [Example 38, N-(1H-Indol-4-yl)-2-[3-(propylamino)propoxy]-benzamide]",change in vivo at 2.5 mg/kg,[1]; [2],42%
same,change in vivo at 5 mg/kg,[1]; [2],76%
same,change in vivo at 10 mg/kg,[1]; [2],173%
"CCC(C)(C)NCCCOc1ccccc1NC(=O)c1cccc2[nH]ccc12 [Example 44, N-[2-[3-[1,1-Dimethylpropylamino]propoxy]phenyl]-1H-indole-4-carboxamide]",change in vivo at 1 mg/kg,[1]; [2],50%
same,change in vivo at 2.5 mg/kg,[1]; [2],90%
same,change in vivo at 5 mg/kg,[1]; [2],167%
same,LD0 (maximum dose not causing any mortality in 8 days),mice,200 mg/kg
Cn1ccc2c(NC(=O)c3ccccc3OCC(O)CN3CCN(C(c4ccccc4)c4ccccc4)CC3)cccc21 (stereo not drawn) [Example 49],IC50,Rat caudal arteries,3 µM
"COc1ccc(CCNCCCOc2ccccc2NC(=O)c2cccc3[nH]ccc23)cc1OC [Example 45, N-[2-[3-[[2-(3,4-dimethoxyphenyl)ethyl]-amino]propoxy]phenyl]-1H-indole-4-carboxamide]",change in vivo at 2.5 mg/kg,[1]; [2],60%
same,change in vivo at 5 mg/kg,[1]; [2],142%
same,change in vivo at 10 mg/kg,[1]; [2],193%
"O=C(Nc1ccccc1OCCCNC1CCCC1)c1cccc2[nH]ccc12 [Example 42, N-[2-[3-(Cyclopentylamino)propoxy]phenyl]-1H-indol-4-carboxamide]",change in vivo at 1 mg/kg,[1]; [2],29%
same,change in vivo at 2.5 mg/kg,[1]; [2],86%
CC(C)N(CC(O)COc1ccccc1C(=O)Nc1cccc2[nH]ccc12)C(C)C (stereo not drawn) [Example 15],change in vivo at 2.5 mg/kg,[1]; [3],25.5%
same,change in vivo at 5 mg/kg,[1]; [3],56%
same,LD0 (maximum dose not causing any mortality in 8 days),mice,≥ 400 mg/kg
CC(C)(C)NCC(O)COc1ccc([N+](=O)[O-])cc1C(=O)Nc1cccc2[nH]ccc12 (stereo not drawn) [Example 50],change in vivo at 0.5 mg/kg,[1]; [4],17%
same,change in vivo at 1 mg/kg,[1]; [4],39%
same,change in vivo at 2.5 mg/kg,[1]; [4],77%
same,LD0 (maximum dose not causing any mortality in 8 days),mice,200 mg/kg
"CC(C)(C)NCCCOc1ccccc1C(=O)Nc1cccc2[nH]ccc12 [Example 6, 2-[3-[(1,1-dimethylethyl)amino]propoxy]-N-(1H-indol-4-yl)benzamide]",change in vivo at 1 mg/kg,[1]; [3],23%
same,change in vivo at 2.5 mg/kg,[1]; [3],41%
same,change in vivo at 2.5 mg/kg,[1]; [5],29%
same,LD0 (maximum dose not causing any mortality in 8 days),mice,200 mg/kg
"COc1ccc(C(=O)Nc2cccc3[nH]ccc23)c(OCC(O)CNC(C)(C)C)c1 (stereo not drawn) [Example 53, 2-[3-(1,1-dimethylethyl)-amine]-2-hydroxy-propoxy-N-(1H-indol-4-yl)-4-methoxy-benzamide]",change in vivo at 1 mg/kg,[1]; [4],10%
same,change in vivo at 2.5 mg/kg,[1]; [4],38%
same,IC50,Rat caudal arteries,8 µM
"CC(C)(C)NCCOc1ccccc1C(=O)Nc1cccc2[nH]ccc12.Cl [Example 5, 2-[2-[(1,1-dimethylethyl)amino]ethoxy]-N-(1H-indol-4-yl)-benzamide hydrochloride]",change in vivo at 0.25 mg/kg,[1]; [3],9%
same,change in vivo at 0.5 mg/kg,[1]; [3],36%
same,change in vivo at 1 mg/kg,[1]; [3],33%
same,change in vivo at 2.5 mg/kg,[1]; [3],61%
same,change in vivo at 2.5 mg/kg,[1]; [5],22%
same,change in vivo at 5 mg/kg,[1]; [5],32%
same,change in vivo at 10 mg/kg,[1]; [5],59%
same,LD0 (maximum dose not causing any mortality in 8 days),mice,60 mg/kg
"CC(C)(C)NCCCCOc1ccccc1C(=O)Nc1cccc2[nH]ccc12 [Example 33, 2[4-[1,1-Dimethylethylamino]butoxy]-N-(1H-indol-4-yl)benzamide]",change in vivo at 5 mg/kg,[1]; [2],54%
same,change in vivo at 10 mg/kg,[1]; [2],99%
same,IC50,Rat caudal arteries,6.3 µM
same,LD0 (maximum dose not causing any mortality in 8 days),mice,> 400 mg/kg
"CC(C)NCCCOc1ccccc1NC(=O)c1cccc2[nH]ccc12 [Example 41, N-[2-[3-[Isopropylamino]propoxy]phenyl]-1H-indole-4-carboxamide]",change in vivo at 1 mg/kg,[1]; [2],34%
same,change in vivo at 2.5 mg/kg,[1]; [2],57%
same,change in vivo at 5 mg/kg,[1]; [2],156%
"CC(C)(C)NCC(O)COc1ccccc1C(=O)Nc1cccc2[nH]ccc12 (stereo not drawn) [Example 4, 2-[3-[(1,1-dimethylethyl)amino]-2-hydroxypropoxy]-N-(1H-indol-4-yl)benzamide]",change in vivo at 0.5 mg/kg,[1]; [3],17%
same,change in vivo at 1 mg/kg,[1]; [3],38%
same,change in vivo at 2.5 mg/kg,[1]; [3],124%
same,change in vivo at 5 mg/kg,[1]; [5],7%
same,change in vivo at 10 mg/kg,[1]; [5],46%
same,change in vivo at 25 mg/kg,[1]; [5],81%
same,LD0 (maximum dose not causing any mortality in 8 days),mice,> 400 mg/kg
"COc1cc(CCN2CCN(CCCCOc3ccccc3C(=O)Nc3cccc4[nH]ccc34)CC2)cc(OC)c1OC [Example 47, N-(1H-Indol-4-yl)-2-[4-[4-[2-(3,4,5-trimethoxyphenyl)ethyl]-1-piperazinyl]butoxy]benzamide]",change in vivo at 5 mg/kg,[1]; [2],44%
same,change in vivo at 10 mg/kg,[1]; [2],67%
same,IC50,Rat caudal arteries,2.8 µM
"O=C(Nc1cccc2[nH]ccc12)c1ccccc1OCCCNC1CCCCC1 [Example 31, 2-[3-(Cyclohexylamino)propoxy]-N-(1-H-indol-4-yl)benzamide]",change in vivo at 1 mg/kg,[1]; [3],24%
same,change in vivo at 2.5 mg/kg,[1]; [3],34%
same,change in vivo at 5 mg/kg,[1]; [3],83%
same,IC50,Rat caudal arteries,1.8 µM
"O=C(Nc1cccc2[nH]ccc12)c1ccccc1OCC(O)CN1CCN(C(c2ccccc2)c2ccccc2)CC1 (stereo not drawn) [Example 46, 2-[2-Hydroxy-3-[4-(diphenylmethyl)-1-piperazinyl]propoxy]-N-(1H-indol-4-yl)benzamide]",change in vivo at 2.5 mg/kg,[1]; [2],67%
same,change in vivo at 5 mg/kg,[1]; [2],127%
same,change in vivo at 10 mg/kg,[1]; [2],203%
same,IC50,Rat caudal arteries,0.25 µM
same,LD0 (maximum dose not causing any mortality in 8 days),mice,400 mg/kg
"O=C(Nc1cccc2[nH]ccc12)c1ccccc1OCCCNCC1CCCCC1 [Example 32, 2-[3-[Cyclohexylmethylamino]-propoxy)-N-(1H-indol-4-yl)benzamide]",change in vivo at 1 mg/kg,[1]; [3],43%
same,change in vivo at 2.5 mg/kg,[1]; [3],71%
same,change in vivo at 5 mg/kg,[1]; [3],97%
same,change in vivo at 6.5 mg/kg,[1]; [3],28%
same,IC50,Rat caudal arteries,3.9 µM
same,LD0 (maximum dose not causing any mortality in 8 days),mice,100 mg/kg
"CC(C)(C)NCC(O)COc1ccccc1NC(=O)c1cccc2[nH]ccc12 (stereo not drawn) [Example 1, N-[2-[3-[(1,1-dimethylethyl)amino]-2-hydroxypropoxy]-phenyl]-1H-indol-4-carboxyamide]",change in vivo at 0.25 mg/kg,[1]; [3],31%
same,change in vivo at 0.5 mg/kg,[1]; [3],41%
same,change in vivo at 1 mg/kg,[1]; [3],110%
same,LD0 (maximum dose not causing any mortality in 8 days),mice,80 mg/kg
"CC(C)N(CCOc1ccccc1C(=O)Nc1cccc2[nH]ccc12)C(C)C [Example 12, 2-[2-[bis(1-methylethyl)-amino]ethoxy-]N-(1H-indol-4-yl) benzamide]",LD0 (maximum dose not causing any mortality in 8 days),mice,> 400 mg/kg
"CC(C)(C)CC(C)(C)NCC(O)COc1ccccc1C(=O)Nc1cccc2[nH]ccc12 (stereo not drawn) [Example 36, 2-[2-Hydroxy-3-[1,1,3,3-tetramethylbutyl-amino]propoxy]-N-(1H-indol-4-yl)benzamide]",change in vivo at 1 mg/kg,[1]; [2],25%
same,change in vivo at 2.5 mg/kg,[1]; [2],69%
same,IC50,Rat caudal arteries,0.44 µM
"CCC(C)(C)NCCCOc1ccccc1C(=O)Nc1cccc2[nH]ccc12 [Example 30, 2-[3-[(1,1-dimethylpropyl)amino]-propoxy]-N-(1H-indol-4-yl)benzamide]",change in vivo at 2.5 mg/kg,[1]; [3],38%
same,change in vivo at 5 mg/kg,[1]; [3],99%
same,change in vivo at 10 mg/kg,[1]; [3],147%
same,IC50,Rat caudal arteries,8 µM
same,LD0 (maximum dose not causing any mortality in 8 days),mice,80 mg/kg
"CC(C)(CO)NCC(O)COc1ccccc1C(=O)Nc1cccc2[nH]ccc12 (stereo not drawn) [Example 37, 2-[3-[1,1-Dimethyl-2-hydroxyethylamino]-2-hydroxypropoxy]-N-(1H-indol-4-yl)benzamide]",change in vivo at 1 mg/kg,[1]; [2],47%
same,change in vivo at 5 mg/kg,[1]; [2],116%
"C#CC(C)(C)NCC(O)COc1ccccc1C(=O)Nc1cccc2[nH]ccc12 (stereo not drawn) [Example 35, 2-[3-[1,1-Dimethyl-2-propynylamino]-2-hydroxypropoxy]-N-(1H-indol-4-yl) benzamide]",IC50,Rat caudal arteries,9 µM
"CC(C)(C)NCC(O)COc1ccc(Cl)cc1C(=O)Nc1cccc2[nH]ccc12 (stereo not drawn) [Example 54, 5-Chloro-2-[3-(1,1-dimethylethyl)-amino]-2-hydroxy-propoxy-N-(1H-indol-4-yl)-benzamide]",IC50,Rat caudal arteries,5.4 µM
"O=C(Nc1ccccc1OCCCNC1CCCCC1)c1cccc2[nH]ccc12 [Example 43, N-[2-[3-(Cyclohexylamino)propoxy]phenyl]-1H-indole-4-carboxamide]",change in vivo at 1 mg/kg,[1]; [2],49%
same,change in vivo at 2.5 mg/kg,[1]; [2],83%
"CC(C)(CO)NCCCOc1ccccc1C(=O)Nc1cccc2[nH]ccc12 [Example 40, 2-[3-[1,1-dimethyl-2-hydroxyethylamino]-propoxy]-N-(1H-indol-4-yl)benzamide]",change in vivo at 1 mg/kg,[1]; [2],21%
same,change in vivo at 2.5 mg/kg,[1]; [2],50%
same,IC50,Rat caudal arteries,8.4 µM
"CC(C)(C)NCCCOc1ccccc1NC(=O)c1cccc2[nH]ccc12 [Example 3, N-[2-[3-[(1,1-dimethylethyl)amino]propoxy]phenyl]-1H-indol-4-carboxamide hydrochloride]",change in vivo at 2.5 mg/kg,[1]; [3],68%
"CC(C)(C)NCCOc1ccccc1NC(=O)c1cccc2[nH]ccc12 [Example 2, N-[2-[2-[(1,1-dimethylethyl)amino]ethoxy]phenyl]-1H-indol-4-carboxamide]",change in vivo at 1 mg/kg,[1]; [3],6%
same,change in vivo at 2.5 mg/kg,[1]; [3],57%
same,LD0 (maximum dose not causing any mortality in 8 days),mice,80 mg/kg
